Target: T1, Kv1.5 potassium channel (Homo sapiens, UniProt P22460)
T1 construct: expressed in transfected cells
Experiment: Patch clamp, CHO cells stably expressing Kv1.5
Format: cell-based
Experimental: The cDNA coding for Kv1.5 (GenBank Acc. No. M55513) was cloned into the pcDNA6-vector (Invitrogen, Leek, Netherlands). A C-terminal epitope-tag was introduced via PCR. The plasmid was sequenced and subsequently introduced into cells. Clonal cell lines stably expressing the Kv1.5 channel were established. Expression of protein was analysed by means of immunofluorescence using antibodies directed against the epitope-tag. The functional expression of the ion channels was validated electrophysiologically.
The experiments were performed using CHO cells stably expressing the Kv 1.5 potassium channel.
Cells were grown at 37° C. and 5% CO2 in 25 ml flasks (Greiner Bioone, Cellstar, Cat. No. 690160) in 6 ml MEM ALPHA Medium (Sigma, Taufkirchen, Germany, Cat No M8042) supplemented with 10% (v/v) heat inactivated fetal calf serum (Sigma, Cat. No. F9665), 1% (v/v) P/S/G-solution (Sigma, Cat. No. G6784) and G-418 (750 μg per millilitre medium; Sigma, Germany, Cat. No. A1720; 50 mg/ml in water, Sigma, Germany, Cat. No. W3500).
From a HP of −60 mV cells were hyperpolarised for 100 ms to −70 mV, followed by a 500 ms depolarisation to +50 mV. The current amplitude at the end of the test pulse to +50 mV was used for the analysis. Pulse cycling rate was 10 s (0.1 Hz).
The application protocol of test compounds is depicted in FIG. 4. The first 14 stimuli were required to achieve steady state of the current amplitude. Unspecific current reduction was calculated and served for correcting procedures during data analysis. After the 14th stimulus the test compound application was started (indicated by an arrow) via teflon and silicone tubings and was assumed to reach the cell after 6 additional stimuli. The perfusion is adjusted by using a defined drop rate of 10 drops per 10-12 s. Up to three concentrations were applied successively to one cell followed by a wash period of 5 minutes. Total number of stimuli was 140. Effect of the test compound was analysed between stimulus nos. 21 and 50 (5 min., long dashed line) for the first concentration, between stimulus nos. 51 and 80 (5 min., short dashed line) for an additional 5 minutes. If the cell was still stable, a wash was added afterwards. Start of test compound application at the given concentration is indicated by arrows. Number of stimuli of each single episode are shown in the protocol of FIG. 4.
Vehicle (DMSO) control experiments were performed during study period and under identical conditions to verify the stability of current over time and to value cell condition.
The effects of the test compounds were investigated at one concentration (2 or 1 μM) on the Kv1.5-mediated potassium channel.

[1] = concentration cell empty (text: 2 or 1 μM)

T1 sequence (P22460 whole entry): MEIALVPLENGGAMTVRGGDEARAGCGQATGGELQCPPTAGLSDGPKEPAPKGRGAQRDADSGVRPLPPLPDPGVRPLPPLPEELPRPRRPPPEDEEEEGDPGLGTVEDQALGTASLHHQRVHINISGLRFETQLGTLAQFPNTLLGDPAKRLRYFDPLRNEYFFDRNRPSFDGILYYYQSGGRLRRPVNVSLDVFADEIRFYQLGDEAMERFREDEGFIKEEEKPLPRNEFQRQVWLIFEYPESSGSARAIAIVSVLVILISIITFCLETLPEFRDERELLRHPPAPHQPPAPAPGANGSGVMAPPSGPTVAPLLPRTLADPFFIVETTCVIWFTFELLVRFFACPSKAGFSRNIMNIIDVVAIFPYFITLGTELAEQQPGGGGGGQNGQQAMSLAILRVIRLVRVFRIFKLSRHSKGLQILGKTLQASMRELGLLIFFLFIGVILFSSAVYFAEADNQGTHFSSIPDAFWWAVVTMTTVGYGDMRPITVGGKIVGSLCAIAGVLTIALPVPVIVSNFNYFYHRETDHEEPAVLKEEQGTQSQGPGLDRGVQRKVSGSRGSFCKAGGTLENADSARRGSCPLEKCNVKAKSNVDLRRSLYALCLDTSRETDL

Compound	Relative remaining current (mean after 8-10 min) [1]	Relative remaining current (mean after 8-10 min) (2 μM, fraction, % in brackets)	Relative remaining current (mean after 5 min) (2 μM, fraction, % in brackets)
Cc1c(C(=O)NCc2ccc(F)c(C(F)(F)F)c2)sc2ccc(Cl)cc12 [Compound 107, 5-chloro-3-methyl-benzo[b]thiophene-2-carboxylic acid 4-fluoro-3-trifluoromethyl-benzylamide]	89%		
O=C(NCc1ccc(OC(F)(F)F)cc1)c1cc2cc(Cl)ccc2o1 [Compound 89, 5-chloro-benzofuran-2-carboxylic acid 4-trifluoromethoxy-benzylamide]	82%		
5-chloro-benzofuran-2- carboxylic acid 2,4- dimethoxy- benzylamide [Compound 2]		0.66 (66%)	0.88 (88%)
